Measured values published in patent publication US4704384A, “Aziridinyl quinone antitumor agents” (priority 1981, dated 1987).
Values joined by “and” are separate entries in the source; they are usually repeats but may differ in a detail not shown here. Equal values may be shown once. “Also recorded” adds a separate entry of the source. Read-outs that look alike come from different tables or passages of the source.

Legend:
lymphoid leukemia L1210 [1] = conditions: prior testing; cited from earlier work
[2] = test system: lymphocytic leukemia P388; format: in vivo, murine; conditions: for OD: QD1-9, Table IX; for ILS: QD1-9, at OD; for ILS / animals alive per 6: Table IX; for animals alive per 6: QD1-9, day 30, at OD; for survivors, P388: Table XI, parentheses, per 6
B16 melanocarcinoma = format: in vivo, murine; conditions: for OD: QD1-9, Table IX; for ILS: QD1-9, at OD, Table IX
lymphoid leukemia L1210 [3] = conditions: for survivors, IP L1210: parentheses, per 6
Text: ^b Ip tumor implantation, ip QD19 treatment schedule.
^e ILS = [(treated survival + control survival) × 100%] - 100%
The L1210, P388 and B16 test systems described in Table II utilize intraperitoneal (IP) tumor implantation and IP drug treatment while the Lewis lung system employs subcutaneous tumor implantation and IP treatment. All three CNS tumor models (Table III) use intracerebral (IC) tumor implantation and IP treatment.
Aqueous saline solution (0.9%) was used as the drug vehicle. Normally, five doses were employed per experiment with the top dose chosen to produce toxicity. The lower doses were 50% of each preceeding dose.
Consistent with NCI antitumor test protocols, intraperitoneal (IP) administration of the drug was employed with all five tumor systems investigated. Tumor implantation was IP in the systems designated IP leukemia L1210 and P388 as well as B16 melanoma. Intracerebral (IC) tumor implantation was utilized in the IC L1210 and ependymoblastoma tumor systems.

lymphoid leukemia L1210 [4] = format: in vivo, murine
Text: (§1) A third IC tumor model, the ependymoblastoma system, was also studied. This system requires intracerebral implantation of a solid tumor fragment while the IC L1210 and IC P388 systems utilize IC inoculated ascites tumor fluid. All three use IP drug treatment however. […] Cures (survivors from the group of six mice on the last day of the experiment) are indicated.

ependymoblastoma = format: in vivo, murine; conditions: for OD: QD1-5, Table X; for ILS: QD1-5, at OD; for ILS / animals alive per 6: Table X; for animals alive per 6: QD1-5, day 60, at OD; for survivors, EM: parentheses, per 6
Text: ^c Ic tumor implantation, ip QD15 treatment schedule.
as §1

[5] = Day 1 only (1 injection), Table VIII
[6] = Day 1 only, day 30, at OD, Table VIII
[7] = QD1-9 (9 injections), Table VIII
[8] = QD1-9, day 30, at OD, Table VIII

| SMILES | activity in L1210 (lymphoid leukemia L1210 [1]) | OD [2] | ILS [2] | OD (B16 melanocarcinoma) | ILS (B16 melanocarcinoma) | OD (lymphoid leukemia L1210 [3]; [5]) | ILS (lymphoid leukemia L1210 [3]; Day 1 only, at OD, Table VIII) | OD (lymphoid leukemia L1210 [3]; Q4D (day 1,5,9), Table VIII) | ILS (lymphoid leukemia L1210 [3]; Q4D, at OD, Table VIII) | OD (lymphoid leukemia L1210 [3]; [7]) | ILS (lymphoid leukemia L1210 [3]; QD1-9, at OD, Table VIII) | survivors, IP L1210 (lymphoid leukemia L1210 [3]; Table XI) | ILS (lymphoid leukemia L1210 [4]; QD1-9, at OD, Table X) | OD (ependymoblastoma) | ILS (ependymoblastoma) | also measured |
| --- | --- | --- | --- | --- | --- | --- | --- | --- | --- | --- | --- | --- | --- | --- | --- | --- |
| O=C1C(Cl)=C(N2CC2)C(=O)C(Cl)=C1N1CC1 [Compound 4, 2,5-dichloro-3,6-diaziridinyl-1,4-benzoquinone] | inactive | – | – | – | – | – | – | – | – | – | – | – | – | – | – | – |
| COC1=C(Br)C(=O)C(OC)=C(Br)C1=O [Compound 14, 2,5-dibromo-3,6-dimethoxy-1,4-benzoquinone] | inactive | – | – | – | – | – | – | – | – | – | – | – | – | – | – | – |
| NC1=C(Cl)C(=O)C(N)=C(Cl)C1=O [Compound 19] | inactive | – | – | – | – | – | – | – | – | – | – | – | – | – | – | – |
| CC(=O)NC1=C(Cl)C(=O)C(NC(C)=O)=C(Cl)C1=O [Compound 20, 2,5-dichloro-3,5-acetylamino-1,4-benzoquinone] | inactive | – | – | – | – | – | – | – | – | – | – | – | – | – | – | – |
| CC(=O)NC1=C(N2CC2)C(=O)C(NC(C)=O)=C(N2CC2)C1=O [Compound 27, reference compound] | intraperitoneal (IP) leukemia L1210 activity | – | – | – | – | – | – | – | – | – | – | – | – | – | – | – |
| COC1=C(N2CC2)C(=O)C(OC)=C(N2CC2)C1=O [Compound 28, reference compound] | intraperitoneal (IP) leukemia L1210 activity | – | – | – | – | – | – | – | – | – | – | – | – | – | – | – |
| O=C1C(NCCO)=C(N2CC2)C(=O)C(NCCO)=C1N1CC1 [Compound 38] | – | 0.4 mg/kg/injection | 175% and 160% | 0.4 mg/kg/injection | 61% and 51% | 1.5 mg/kg/injection | 175% and 119% | 0.7 mg/kg/injection | 131% and 70% | 0.7 mg/kg/injection | 205% and 134% | 2 | 57% and 48% | 1.5 mg/kg/injection | 83% and 70% | activity in IP P388 [2]: very active producing multiple cures; animals alive per 6 [2]: 3 and 2; survivors, P388 [2]: 3; activity in B16 melanoma (B16 melanocarcinoma): reproducibly active; activity in IP L1210 (lymphoid leukemia L1210 [3]): Excellent activity; also recorded: produced cures; also recorded: superior; animals alive per 6 (lymphoid leukemia L1210 [3]; [6]): 5 and 3; animals alive per 6 (lymphoid leukemia L1210 [3]; [8]): 2 and 3; maximum ILS (lymphoid leukemia L1210 [3]; chronic schedule): > 200%; activity in IC L1210 (lymphoid leukemia L1210 [4]): marginal IC L1210 activity; OD (lymphoid leukemia L1210 [4]; QD1-9, Table X): 0.75 mg/kg/injection |
| O=C1C(NCC(O)CO)=C(N2CC2)C(=O)C(NCC(O)CO)=C1N1CC1 (stereo not drawn) [Compound 39] | – | 4.0 mg/kg/injection | 143% | 4.0 mg/kg/injection and 6.0 mg/kg/injection | 50% and 42% | 4.0 mg/kg/injection and 2.0 mg/kg/injection | 89% | 4.0 mg/kg/injection and 8.0 mg/kg/injection | 90% and 79% | 4.0 mg/kg/injection and 2.0 mg/kg/injection | 206% | 5 | 43% and 41% | – | 99% and 53% | activity in IP P388 [2]: very active producing multiple cures; animals alive per 6 [2]: 6 and 4; survivors, P388 [2]: 6; activity in B16 melanoma (B16 melanocarcinoma): reproducibly active; activity in IP L1210 (lymphoid leukemia L1210 [3]): Excellent activity; also recorded: produced cures; also recorded: probably the most active compound in the IP ascites systems; animals alive per 6 (lymphoid leukemia L1210 [3]; [6]): 4; activity in IC L1210 (lymphoid leukemia L1210 [4]): marginal IC L1210 activity; OD (lymphoid leukemia L1210 [4]; QD1-9, Table X): 4.0 mg/kg/injection; activity in ependymoblastoma (ependymoblastoma): moderate to good EM activity; animals alive per 6 (ependymoblastoma): 1; ILS (%) EM (ependymoblastoma; Table XI, outstanding activity): 99%; survivors, EM (ependymoblastoma; Table XI): 1; survivors, EM (ependymoblastoma; repeat test): 6 |
| NC(=O)CNC1=C(N2CC2)C(=O)C(NCC(N)=O)=C(N2CC2)C1=O [Compound 40] | – | 2.0 mg/kg/injection | 85% and 71% | – | 37% and 22% | 10.0 mg/kg/injection | 21% and 15% | 8.0 mg/kg/injection | – | 10.0 mg/kg/injection | 92% and 91% | – | 16% | 2.0 mg/kg/injection and 1.0 mg/kg/injection | 64% and 50% | – |
| CN(C)C1=C(N2CC2)C(=O)C(N(C)C)=C(N2CC2)C1=O [Compound 41, 2,5-DIAZIRIDINYL-3,6-BIS(DIMETHYLAMINO)-1,4-BENZOQUINONE] | – | 1.0 mg/kg/injection and 0.5 mg/kg/injection | 74% and 37% | 0.2 mg/kg/injection | 16% and 12% | 1.5 mg/kg/injection | 21% and 15% | 3.0 mg/kg/injection | 120% and 73% | – | – | 1 | – | 1.0 mg/kg/injection and 0.5 mg/kg/injection | 215% and 190% | animals alive per 6 (lymphoid leukemia L1210 [3]; Q4D, day 30, at OD, Table VIII): 1; activity in IC L1210 (lymphoid leukemia L1210 [4]): most active; also recorded: significant activity; OD (lymphoid leukemia L1210 [4]; Q4D(1,5,9), Table X): 3.0 mg/kg/injection; ILS (lymphoid leukemia L1210 [4]; Q4D(1,5,9), at OD, Table X): 72% and 56%; activity in ependymoblastoma (ependymoblastoma): among the most active materials; animals alive per 6 (ependymoblastoma): 5 and 4; survivors, EM (ependymoblastoma; Table XI): 5 |
| CN(CCO)C1=C(N2CC2)C(=O)C(N(C)CCO)=C(N2CC2)C1=O [Compound 42] | – | 1.6 mg/kg/injection and 0.8 mg/kg/injection | 162% | 0.8 mg/kg/injection | 47% and 31% | – | -5% | 0.4 mg/kg/injection and 0.2 mg/kg/injection | – | 1.5 mg/kg/injection | 114% and 111% | 1 | 45% and 32% | 0.4 mg/kg/injection and 0.2 mg/kg/injection | 84% and 69% | activity in B16 melanoma (B16 melanocarcinoma): approached minimal reproducible activity; animals alive per 6 (lymphoid leukemia L1210 [3]; [8]): 1; OD (lymphoid leukemia L1210 [4]; QD1-9, Table X): 4.0 mg/kg/injection and 2.0 mg/kg/injection |
| O=C1C(N2CC2)=C(N2CCCC(O)C2)C(=O)C(N2CC2)=C1N1CCCC(O)C1 (stereo not drawn) [Compound 45] | – | 1.0 mg/kg/injection | 95% and 78% | 1.0 mg/kg/injection | 40% and 37% | – | – | 6.0 mg/kg/injection and 4.0 mg/kg/injection | 104% and 84% | 3.0 mg/kg/injection | 59% and 44% | – | – | – | 64% and 48% | activity in B16 melanoma (B16 melanocarcinoma): approached minimal reproducible activity; animals alive per 6 (lymphoid leukemia L1210 [3]; Q4D, day 30, at OD, Table VIII): 2; OD (lymphoid leukemia L1210 [4]; Q4D(1,5,9), Table X): 8.0 mg/kg/injection and 6.0 mg/kg/injection |
| O=C1C(N2CCN(CCO)CC2)=C(N2CC2)C(=O)C(N2CCN(CCO)CC2)=C1N1CC1 [Compound 47] | – | 0.5 mg/kg/injection and 1.0 mg/kg/injection | 143% | – | 22% | 4.0 mg/kg/injection | – | 4.0 mg/kg/injection and 2.0 mg/kg/injection | 180% | 1.0 mg/kg/injection and 0.5 mg/kg/injection | – | 3 | 43% and 41% | 1.0 mg/kg/injection | 75% | activity in IP P388 [2]: very active producing multiple cures; animals alive per 6 [2]: 3 and 6; survivors, P388 [2]: 3; activity in IP L1210 (lymphoid leukemia L1210 [3]): produced cures; also recorded: superior; animals alive per 6 (lymphoid leukemia L1210 [3]; Q4D, day 30, at OD, Table VIII): 3 and 4; T-C (lymphoid leukemia L1210 [3]; QD1-9, day 5, at OD, Table VIII): -1.7 grams; animals alive per 6 (lymphoid leukemia L1210 [3]; [8]): 1; ILS (%) IP L1210 (lymphoid leukemia L1210 [3]; Table XI, outstanding activity): 180%; activity in IC L1210 (lymphoid leukemia L1210 [4]): marginal IC L1210 activity; OD (lymphoid leukemia L1210 [4]; QD1-9, Table X): 2.0 mg/kg/injection and 1.5 mg/kg/injection; T-C (lymphoid leukemia L1210 [4]; QD1-9, day 5, at OD, Table X): -1.4 grams |
| O=C1C(Cl)=C(Cl)C(=O)C(Cl)=C1Cl [chloranil, tetrachlorobenzoquinone, reference compound] | inactive | – | – | – | – | – | – | – | – | – | – | – | – | – | – | – |
